# US20250154201A1, “PEPTIDE BINDING TO MESOTHELIN, AND USE THEREOF” (KYUNGPOOK NATIONAL UNIVERSITY INDUSTRY-ACADEMIC COOPERATION …, priority 2022, published 2025)
# Columns and labels:
# in vitro = settings: human
# Experimental: Pancreatic cancer cell line AsPC-1 cells (5×10^3 cells/well in 96-well plates) were cultured in 1% serum medium with various concentrations of MSLN-pep peptide that specifically binds to mesothelin, NSSSVDK control peptide (Ctrl-pep), R7-KLA peptide that induces apoptosis, Abraxane, gemcitabine, and PBS at 37° C. for 24 and 48 hours. Afterwards, CCK-8 Kit (Dojindo, Kumamoto, Japan) reagent was treated, and a reaction was carried out at 37° C. for 2 hours to evaluate cytotoxicity.
# To determine whether there is cytotoxicity when MSLN-pep binds specifically to mesothelin, the peptide was treated to the pancreatic cancer cell line AsPC-1 at concentrations of 0, 25, 50, 100, and 200 μM, and cell viability was checked for 24 and 48hours.
# [1] = system: pancreatic cancer cell lines PANC-1 and AsPC-1; assay: internalization of FITC-labeled peptides (confocal microscopy); format: cell-based, human; settings: 25 μM and 50 μM MSLN-pep, 50 uM NSSSVDK; 1 and 2 hours
# Experimental: To observe the intracellular distribution of the internalized FITC-labeled peptide MSLN-pep, pancreatic cancer cell lines AsPC-1 and PANC-1 cells (2.5×10^5 cell counts) were dispensed on a 4-well chamber slide. After complete adhesion, the cell culture medium was replaced with a fresh medium containing FITC-labeled peptides (25 μM, 50 μM), […], and the cells were washed with PBS 3 times for 3˜5 minutes, followed by fixation (4% paraformaldehyde; PFA) for 5 minutes. Thereafter, washing with PBS was performed. After staining the nucleus with DAPI and mounting on a glass slide with a fading reagent, internalization of FITC-labeled MSLN-pep was observed under confocal microscopy.
# [2] = system: AsPC-1 cells expressing mesothelin; assay: binding to AsPC-1 cells after mesothelin siRNA (confocal immunofluorescence and flow cytometry); format: cell-based, human; settings: for specific binding (flow cytometry): 25 μM MSLN-pep
# Experimental: Mesothelin-specific siRNA (M-siRNA) and negative control siRNA (C-siRNA) were purchased from Bioneer and transfected with Lipofectamine RNAiMAX transfection reagent (Invitrogen) into AsPC-1, a pancreatic cancer cell line. After 24 hours of transfection, the media were replaced with a medium containing serum, followed by culture for an additional 24 hours.
# After AsPC-1 cells were cultured for 24 hours, for suppression of mesothelin expression, transfection followed with C-siRNA, a non-specific siRNA, as well as M-siRNA, a mesothelin-specific siRNA. To detect the silencing of the mesothelin gene, the group was divided into one without treatment of siRNA, one with treatment of 100 nM C-siRNA, and one with treatment of 100 nM and 200 nM M-siRNA. Mesothelin antibody and MSLN-pep were then treated by 10 μM and 25 μM, respectively. Further, the results were identified by means of confocal microscopy via immunofluorescence analysis (FIG. 6A). […] Flow cytometry was performed to determine the expression level of mesothelin when siRNA was not treated to AsPC-1 cells and the expression level of mesothelin after C-siRNA and M-siRNA were treated, of which values were expressed in % binding with the mesothelin antibody and the mean fluorescence intensity (MFI). […] As a result of performing flow cytometry to determine the difference between the binding of 25 μM MSLN-pep when siRNA was not treated to AsPC-1 cells expressing mesothelin and the binding of 25 μM MSLN-pep after treating with C-siRNA and M-siRNA, when treated with no siRNA or treated with 100 nM C-siRNA, the specific binding of 25 μM MSLN-pep was approximately 78%, and when treated with 100 nM and 200 nM M-siRNA, it was approximately 15%. This series of results reveal the degree of mesothelin expression and the reduction of mesothelin expression when M-siRNA is treated. […] In brief, it was determined that MSLN-pep specifically binds to cells expressing mesothelin.
# mesothelin = mesothelin (Homo sapiens, UniProt Q13421); assay: immunofluorescence binding to HEK-293T cells transiently transfected with mesothelin-GFP plasmid; format: cell-based; parameters: GFP; host or cells: HEK293T; settings: 10 μM and 25 μM MSLN-pep, 25 μM Ctrl-pep; transfected and untransfected HEK-293T
# Experimental: HEK293T cells were transiently transfected using Lipofectamine 3000 (Invitrogen) in 6-well plates according to the manufacturer's protocol. Prior to transfection, 2×10^5 cells were cultured in 6-well plates for 24 hours. To transfect one well, 7.5 μl of Lipofectamine 3000 reagent was diluted in 250 μl of Opti-MEM (Invitrogen) reagent, followed by a reaction at room temperature for 5 minutes. 5 μg of mesothelin-expressing plasmid pCMV6-AC-GFP vector DNA was diluted in 250 μl of Opti-MEM (Invitrogen) reagent, followed by a reaction at room temperature for 5 minutes. The mixture of two solutions were then mixed and reacted at room temperature for 10 minutes (a total of 500 μl per well). The old medium of the cells was immediately removed, and a 500 μl of DNA-transfection reagent-mixture was added to the cells before transfer to the incubator. After 24 hours of culture, the medium was again replaced with a pre-warmed growth medium containing serum. Culture was performed for 48 hours, and the newly inserted protein was expressed in the cells.
# Taken together, it was found via immunofluorescence analysis that MSLN-pep specifically binds to mesothelin.
# mesothelin, sequence (Q13421 with tags, fused parts or gaps): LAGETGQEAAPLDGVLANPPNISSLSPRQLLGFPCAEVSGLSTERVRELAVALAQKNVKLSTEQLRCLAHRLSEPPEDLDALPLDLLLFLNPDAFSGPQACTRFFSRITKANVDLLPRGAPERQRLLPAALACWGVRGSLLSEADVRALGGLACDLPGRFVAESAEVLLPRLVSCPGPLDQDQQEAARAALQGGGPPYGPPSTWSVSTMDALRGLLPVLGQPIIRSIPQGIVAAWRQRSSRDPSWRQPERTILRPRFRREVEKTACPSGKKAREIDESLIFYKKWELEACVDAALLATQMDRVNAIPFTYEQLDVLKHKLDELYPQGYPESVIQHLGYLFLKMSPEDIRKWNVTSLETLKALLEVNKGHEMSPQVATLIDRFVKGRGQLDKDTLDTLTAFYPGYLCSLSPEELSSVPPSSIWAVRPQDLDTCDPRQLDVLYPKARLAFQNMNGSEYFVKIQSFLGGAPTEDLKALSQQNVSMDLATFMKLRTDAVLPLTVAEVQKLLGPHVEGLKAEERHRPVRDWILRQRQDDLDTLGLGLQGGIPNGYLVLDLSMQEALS
smiles,measurement,setting,value
CC[C@H](C)[C@@H]1NC(=O)[C@H]([C@@H](C)O)NC(=O)[C@@H](N)CSSC[C@@H](C(=O)O)NC(=O)[C@H]([C@@H](C)O)NC(=O)[C@H](CC(C)C)NC(=O)[C@H](CO)NC(=O)[C@H](Cc2c[nH]c3ccccc23)NC(=O)[C@H](CC(C)C)NC1=O [MSLN-pep],viability at 200 µM,in vitro,~80%
same,binding and internalization into cells,[1],internalization into cells occurs in proportion to the increase in the concentration
same,specific binding (flow cytometry),[2]; 100 nM and 200 nM M-siRNA,approximately 15%
same,specific binding (flow cytometry),[2]; no siRNA or 100 nM C-siRNA,approximately 78%
same,specific binding to mesothelin (confocal immunofluorescence),[2]; 25 μM compared to 10 μM,higher specific binding to mesothelin
same,specific binding (confocal immunofluorescence),[2]; M-siRNA 100 nM and 200 nM,decreased with the decrease of mesothelin expression
same,specific binding (immunofluorescence),mesothelin,bound only to the mesothelin-expressing portion
